Assay results reported in patent publication US6844353B2, “Fungicidal properties of sampangine and its analogs to agriculturally important fungal plant pathogens” (The United States of America as represented by the …, priority 2003, dated 2005).

What was measured:
Test in all cases: 96-well microtiter plate assay, fungal growth inhibition
F. oxysporum = type: cell-based, Fusarium oxysporum; conditions: F. oxysporum
Excerpt: (§1) Pathogen production. Isolates of Colletotrichum acutatum Simmonds, Colletotrichum fragariae Brooks, and Colletotrichum gloeosporioides (Penz.) Penz. & Sacc. in Penz. were obtained from B. J. Smith, USDA, ARS, Small Fruit Research Station, Poplarville, Miss. Colletotrichum fragariae (isolate CF63), C. acutatum (isolate CAGoff), and C. gloeosporioides (isolate CG162) were used for all pathogen and bioautography studies. Isolate CF63 is one of the most virulent isolates at infecting strawberry plants and inducing both crown and fruit rot (Smith and Black, 1990). CF63, CAGoff, and CG162 were used as standard test isolates because of our extensive knowledge of these isolates and their known fungicide sensitivity profiles in both bioautography and microtiter formats. The three Colletotrichum species were isolated from strawberry (Fragaria x ananassa Duchesne). Botrytis cinerea Pers.: Fr, was isolated from commercial grape (Vitis vinifera L.) and Fusarium oxysporum Schlechtend: Fr from orchid (Cynoches sp.). Phomopsis viticola (Sacc.) and P. obscurans (Ellis & Everh.) Sutton were from Mike A. Ellis, Ohio State University, Wooster, Ohio. Fungi were grown on potato-dextrose agar (PDA, Difco, Detroit, Mich.) in 9 cm petri dishes and incubated in a growth chamber at 24±2° C. and under cool-white fluorescent lights ([…]·m^−2·sec^−1 light) with 12 hour photoperiod.
(§2) Inoculum preparation. Conidia were harvested from 7-10 day-old cultures by flooding plates with 5 mL of sterile distilled water and dislodging conidia by softly brushing the colonies with an L-shaped glass rod. Conidial suspensions were filtered through sterile miracloth (Calbiochem-Novabiochem Corp., La Jolla, Calif.) to remove mycelia. Conidia concentrations were determined photometrically, from a standard curve based on the percent of transmittance (% T) at 625 nm and suspensions were then adjusted with sterile distilled water to a concentration of 1.0×10^6 conidia/mL.
(§3) Microtiter assay. A standardized 96-well microtiter plate assay developed for discovery of natural product fungicidal agents was used to evaluate naturally occurring antifungal agents from Macaranga monanara. A 96-well microtiter assay was used to determine sensitivity of B. cinerea, C. acutatum, C. fragariae, C. gloeosporioides, F. oxysporum, Phomopsis viticola, and P. obscurans to the various antifungal agents in comparison with known fungicidal standards. Vinclozolin, captan, and thiabendazole, which represent three different modes of action, were used as standards in this experiment. Each fungus was challenged in a dose-response format using test compounds where the final treatment concentrations were 0.3, 3.0 and 30.0 μM. Microtiter plates (Nunc MicroWell, untreated; Roskilde, Denmark) were covered with a plastic lid and incubated in a growth chamber as described previously for fungal growth. Growth was then evaluated by measuring absorbance of each well at 620 nm using a microplate photometer (Packard Spectra Count, Packard Instrument Co., Downers Grove, Ill.). Microtiter plates (Nunc MicroWell, untreated; Roskilde, Denmark) were covered with a plastic lid and incubated in a growth chamber at 24±1° C. and 12 hour photoperiod under 60±5 μmol light. Growth was then evaluated by measuring absorbance of each well at 620 nm using a microplate photometer (Packard Spectra Count, Packard Instrument Co., Downers Grove, Ill.).
(§4) Microbioassy Experimental Design. Chemical sensitivity each of B. cinerea, C. acutatum, C. fragariae, C. gloeosporiodes, F. oxysporum, Phomopsis viticola, and P. obscurans was evaluated using 96-well plate microbioassay format. Each chemical was evaluated in duplicate at each dose (0.3, 3.0 and 30.0 μM). […]

C. fragariae = type: cell-based, Colletotrichum fragariae; conditions: C. fragariae
Excerpt: as §1, §2, §3, §4

C. gloeosporioides = type: cell-based, Colletotrichum gloeosporioides; conditions: C. gloeosporioides
Excerpt: as §1, §2, §3, §4

B. cinerea = type: cell-based, Botrytis cinerea; conditions: B. cinerea
Excerpt: as §1, §2, §3, §4

C. acutatum = type: cell-based, Colletotrichum acutatum; conditions: C. acutatum
Excerpt: as §1, §2, §3, §4

| Structure (SMILES) | Percent inhibition−Percent Stimulation±SEM (F. oxysporum; 0.3 μM, 48 hrs) [%] | Percent inhibition−Percent Stimulation±SEM (F. oxysporum; 0.3 μM, 72 hrs) [%] | Percent inhibition−Percent Stimulation±SEM (F. oxysporum; 3.0 μM, 48 hrs) [%] | Percent inhibition−Percent Stimulation±SEM (F. oxysporum; 3.0 μM, 72 hrs) [%] | Percent inhibition−Percent Stimulation±SEM (F. oxysporum; 30 μM, 48 hrs) [%] | Percent inhibition−Percent Stimulation±SEM (F. oxysporum; 30 μM, 72 hrs) [%] | Percent inhibition−Percent Stimulation±SEM (C. fragariae; 0.3 μM, 48 hrs) [%] | Percent inhibition−Percent Stimulation±SEM (C. fragariae; 0.3 μM, 72 hrs) [%] | Percent inhibition−Percent Stimulation±SEM (C. fragariae; 3.0 μM, 48 hrs) [%] | Percent inhibition−Percent Stimulation±SEM (C. fragariae; 3.0 μM, 72 hrs) [%] | Percent inhibition−Percent Stimulation±SEM (C. fragariae; 30 μM, 48 hrs) [%] | Percent inhibition−Percent Stimulation±SEM (C. fragariae; 30 μM, 72 hrs) [%] | Percent inhibition−Percent Stimulation±SEM (C. gloeosporioides; 0.3 μM, 48 hrs) [%] | Percent inhibition−Percent Stimulation±SEM (C. gloeosporioides; 0.3 μM, 72 hrs) [%] | Percent inhibition−Percent Stimulation±SEM (C. gloeosporioides; 3.0 μM, 48 hrs) [%] | Percent inhibition−Percent Stimulation±SEM (C. gloeosporioides; 3.0 μM, 72 hrs) [%] | Percent inhibition−Percent Stimulation±SEM (C. gloeosporioides; 30 μM, 48 hrs) [%] | Percent inhibition−Percent Stimulation±SEM (C. gloeosporioides; 30 μM, 72 hrs) [%] | Percent inhibition−Percent Stimulation±SEM (B. cinerea; 0.3 μM, 48 hrs) [%] | Percent inhibition−Percent Stimulation±SEM (B. cinerea; 0.3 μM, 72 hrs) [%] | also measured |
| --- | --- | --- | --- | --- | --- | --- | --- | --- | --- | --- | --- | --- | --- | --- | --- | --- | --- | --- | --- | --- | --- |
| O=C1c2ccccc2-c2nccc3c(Br)cnc1c23 [4-bromosampangine] | −20.4 ± 4.6 | −2.8 ± 1.9 | −42.3 ± 4.5 | −14.0 ± 2.1 | −25.8 ± 2.6 | −9.1 ± 3.0 | −46.3 ± 5.0 | −15.2 ± 8.2 | −87.3 ± 2.0 | −45.8 ± 5.6 | −55.9 ± 7.1 | −26.7 ± 7.3 | −100.0 ± 1.5 | −99.0 ± 0.6 | −98.9 ± 0.5 | −99.1 ± 0.4 | −96.0 ± 1.4 | −99.7 ± 0.4 | −41.1 ± 9.4 | −22.6 ± 13.7 | Percent inhibition−Percent Stimulation±SEM (B. cinerea; 3.0 μM, 48 hrs): −59.2 ± 6.7%; Percent inhibition−Percent Stimulation±SEM (B. cinerea; 3.0 μM, 72 hrs): −38.8 ± 9.4%; Percent inhibition−Percent Stimulation±SEM (B. cinerea; 30 μM, 48 hrs): −29.7 ± 9.7%; Percent inhibition−Percent Stimulation±SEM (B. cinerea; 30 μM, 72 hrs): 2.5 ± 8.9%; Percent inhibition−Percent Stimulation±SEM (C. acutatum; 0.3 μM, 48 hrs): −23.3 ± 8.0%; Percent inhibition−Percent Stimulation±SEM (C. acutatum; 0.3 μM, 72 hrs): −7.1 ± 6.3%; Percent inhibition−Percent Stimulation±SEM (C. acutatum; 3.0 μM, 48 hrs): −73.4 ± 6.8%; Percent inhibition−Percent Stimulation±SEM (C. acutatum; 3.0 μM, 72 hrs): −24.9 ± 8.7%; Percent inhibition−Percent Stimulation±SEM (C. acutatum; 30 μM, 48 hrs): −33.4 ± 6.9%; Percent inhibition−Percent Stimulation±SEM (C. acutatum; 30 μM, 72 hrs): −10.5 ± 6.7% |
| COc1cnc2c3c(nccc13)-c1ccccc1C2=O [4-methoxysampangine] | −10.3 ± 4.7 | 2.9 ± 4.2 | −66.8 ± 5.5 | −33.5 ± 1.9 | −43.6 ± 2.7 | −23.5 ± 1.6 | −15.0 ± 7.5 | −30.2 ± 7.4 | −75.2 ± 6.7 | −44.3 ± 6.5 | −67.9 ± 13.6 | −39.6 ± 6.3 | −48.5 ± 6.7 | −15.6 ± 1.9 | −94.4 ± 0.9 | −91.1 ± 2.1 | −95.9 ± 3.4 | −79.7 ± 6.0 | −23.0 ± 14.4 | −4.8 ± 12.6 | Percent inhibition−Percent Stimulation±SEM (B. cinerea; 3.0 μM, 48 hrs): −59.2 ± 6.7%; Percent inhibition−Percent Stimulation±SEM (B. cinerea; 3.0 μM, 72 hrs): −18.4 ± 5.4%; Percent inhibition−Percent Stimulation±SEM (B. cinerea; 30 μM, 48 hrs): −20.3 ± 21.8%; Percent inhibition−Percent Stimulation±SEM (B. cinerea; 30 μM, 72 hrs): 19.0 ± 14.3%; Percent inhibition−Percent Stimulation±SEM (C. acutatum; 0.3 μM, 48 hrs): −5.1 ± 7.8%; Percent inhibition−Percent Stimulation±SEM (C. acutatum; 0.3 μM, 72 hrs): −0.3 ± 6.4%; Percent inhibition−Percent Stimulation±SEM (C. acutatum; 3.0 μM, 48 hrs): −75.1 ± 6.8%; Percent inhibition−Percent Stimulation±SEM (C. acutatum; 3.0 μM, 72 hrs): −44.1 ± 6.5%; Percent inhibition−Percent Stimulation±SEM (C. acutatum; 30 μM, 48 hrs): −51.3 ± 6.2%; Percent inhibition−Percent Stimulation±SEM (C. acutatum; 30 μM, 72 hrs): −25.4 ± 5.4% |
